According to PMC10378394 (Current Issues in Molecular Biology, 2023):
Values joined by “and” are separate entries in the source; they are usually repeats but may differ in a detail not shown here. Equal entries are not always repeated.

Experiments:
BTK(h) = BTK(h) (Homo sapiens, UniProt Q06187); assay: Eurofins kinase assay
[1] = tested on: MEK and ERK phosphorylation; assay: Western blot in LS513 cells; format: cell-based, human
Experimental: (§1) In 6-well plates, LS513 cells were seeded and allowed to adhere and proliferate for 24 h. […] After treatment, the cells were harvested using RIPA lysis buffer to extract cellular proteins. The cell lysates were subjected to Western blot analysis. Antibodies specific to phosphorylated epidermal growth factor receptor (p-EGFR, Cell Signaling Technology, Danvers, MA, USA, #2234S), epidermal growth factor receptor (EGFR, Cell Signaling Technology #2232S), phosphorylated vascular endothelial growth factor receptor (p-VEGFR, Cell Signaling Technology #3770S), vascular endothelial growth factor receptor (VEGFR, Cell Signaling Technology #2479S), phosphorylated Akt (p-Akt, Cell Signaling Technology #9271S), Akt (Cell Signaling Technology #9272S), phosphorylated MEK (p-MEK, Cell Signaling Technology #9121S), MEK (Cell Signaling Technology #9122), phosphorylated ERK (p-ERK, Cell Signaling Technology #9101S), and ERK (Cell Signaling Technology #9102S) were used for protein detection. The antibodies were diluted 1:1000 for the specific target proteins. In addition, a β-actin antibody (Sigma-Aldrich, Seoul, Republic of Korea, #A5441) diluted 1:5000 was used as a loading control. Bone-marrow-derived macrophages (BMDMs) were plated and allowed to adhere and proliferate for 24 h. […] Subsequently, the cells were stimulated with recombinant human angiopoietin-2 (R&D Systems, Minneapolis, MN, USA, #623-AN) and CSF1 (Peprotech, #300-25) for 15 min. After stimulation, protein samples were obtained from the cells. The cell lysates were analyzed by Western blot using specific antibodies, such as p-CSF1R (Cell Signaling, #14591S), CSF1R (Cell Signaling, #67455S), p-TIE2 (Cell Signaling, #4221S), and TIE2 (Santa Cruz Biotechnology, Dallas, TX, USA, #sc-293414), to detect and analyze the respective proteins.

AKT phosphorylation = assay: Western blot in LS513 cells; format: cell-based, human; settings: LS513, 1 h treatment
Experimental: as §1

PDK1(h) = PDK1(h) (Homo sapiens, UniProt O15530); assay: Eurofins kinase assay
CRAF = CRAF (Homo sapiens, UniProt P04049); assay: Eurofins kinase assay
CRAF, sequence (P04049 whole entry): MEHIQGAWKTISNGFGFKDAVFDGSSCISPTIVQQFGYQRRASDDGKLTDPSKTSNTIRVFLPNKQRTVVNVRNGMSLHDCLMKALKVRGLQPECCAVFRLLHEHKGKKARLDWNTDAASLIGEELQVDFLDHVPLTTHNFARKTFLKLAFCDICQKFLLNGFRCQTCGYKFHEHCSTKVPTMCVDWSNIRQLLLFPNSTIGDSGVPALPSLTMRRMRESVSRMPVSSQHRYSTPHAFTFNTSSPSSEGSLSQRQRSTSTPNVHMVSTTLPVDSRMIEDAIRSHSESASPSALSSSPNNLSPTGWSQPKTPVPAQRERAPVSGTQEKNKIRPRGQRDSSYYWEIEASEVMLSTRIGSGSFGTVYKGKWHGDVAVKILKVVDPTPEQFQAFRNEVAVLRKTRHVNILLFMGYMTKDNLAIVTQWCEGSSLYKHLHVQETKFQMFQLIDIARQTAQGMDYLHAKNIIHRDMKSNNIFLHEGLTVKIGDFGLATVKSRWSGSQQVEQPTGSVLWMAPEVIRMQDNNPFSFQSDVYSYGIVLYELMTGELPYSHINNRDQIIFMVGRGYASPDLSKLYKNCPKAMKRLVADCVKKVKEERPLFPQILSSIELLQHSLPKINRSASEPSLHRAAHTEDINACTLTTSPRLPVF

FGFR3(h) = FGFR3(h) (Homo sapiens, UniProt P22607); assay: Eurofins kinase assay
Fyn(h) = Fyn(h) (Homo sapiens, UniProt P06241); assay: Eurofins kinase assay
Yes(h) = Yes(h) (Homo sapiens, UniProt P07947); assay: Eurofins kinase assay
Yes(h), sequence (P07947 whole entry): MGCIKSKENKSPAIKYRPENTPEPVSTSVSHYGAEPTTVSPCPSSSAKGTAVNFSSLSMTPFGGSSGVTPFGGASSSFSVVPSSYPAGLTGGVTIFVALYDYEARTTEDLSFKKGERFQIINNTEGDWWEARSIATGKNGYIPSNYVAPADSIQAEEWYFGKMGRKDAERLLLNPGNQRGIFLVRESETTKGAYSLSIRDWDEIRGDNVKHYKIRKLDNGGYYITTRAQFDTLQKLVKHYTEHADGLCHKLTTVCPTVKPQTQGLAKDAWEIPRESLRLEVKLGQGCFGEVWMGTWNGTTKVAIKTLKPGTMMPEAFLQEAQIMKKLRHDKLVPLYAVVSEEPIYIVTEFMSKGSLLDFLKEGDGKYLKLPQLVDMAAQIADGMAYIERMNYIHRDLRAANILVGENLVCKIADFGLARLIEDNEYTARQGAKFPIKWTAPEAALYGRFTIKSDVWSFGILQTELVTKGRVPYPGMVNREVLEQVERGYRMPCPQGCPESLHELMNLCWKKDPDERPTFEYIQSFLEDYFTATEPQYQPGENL

LS513 (KRAS G12D) = assay: Cell proliferation assay (CellTiter-Glo); settings: Homo sapiens, LS-513, 72 h
Experimental: (§2) To assess cell viability, the CellTiter-Glo Luminescent Cell Viability Assay Reagent (Promega, Fitchburg, WI, USA) was added to each well. The assay measured ATP levels as an indicator of cell viability. All data points were normalized to the control samples treated with dimethyl sulfoxide when determining IC50 values. Statistical calculations and data analysis, including IC50 determination, were performed using GraphPad Prism software.

Syk(h) = Syk(h) (Homo sapiens, UniProt P43405); assay: Eurofins kinase assay
SW620 (KRAS G12V) = assay: Cell proliferation assay (CellTiter-Glo); settings: Homo sapiens, SW-620, 72 h
Experimental: as §2

cSRC(h) = cSRC(h) (Homo sapiens, UniProt P12931); assay: Eurofins kinase assay
PKCζ(h) = PKCζ(h) (Homo sapiens, UniProt Q05513); assay: Eurofins kinase assay
PKCζ(h), sequence (Q05513 whole entry): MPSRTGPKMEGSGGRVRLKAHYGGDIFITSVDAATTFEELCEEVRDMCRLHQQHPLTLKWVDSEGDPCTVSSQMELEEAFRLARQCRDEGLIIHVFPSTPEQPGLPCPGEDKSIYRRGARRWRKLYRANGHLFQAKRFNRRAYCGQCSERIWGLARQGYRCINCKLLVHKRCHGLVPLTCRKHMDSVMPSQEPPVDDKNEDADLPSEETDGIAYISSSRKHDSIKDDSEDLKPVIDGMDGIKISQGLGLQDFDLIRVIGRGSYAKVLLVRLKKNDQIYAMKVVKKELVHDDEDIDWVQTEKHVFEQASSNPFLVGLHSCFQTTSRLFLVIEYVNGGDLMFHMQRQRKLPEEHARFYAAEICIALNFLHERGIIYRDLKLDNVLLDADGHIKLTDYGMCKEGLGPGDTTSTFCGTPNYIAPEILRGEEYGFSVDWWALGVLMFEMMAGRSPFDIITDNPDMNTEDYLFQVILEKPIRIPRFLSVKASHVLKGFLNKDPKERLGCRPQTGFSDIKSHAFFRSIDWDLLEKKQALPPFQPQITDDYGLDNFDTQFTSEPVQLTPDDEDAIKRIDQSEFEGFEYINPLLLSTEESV

PKCμ(h) = PKCμ(h) (Homo sapiens, UniProt Q15139); assay: Eurofins kinase assay
Pharmacokinetic study = format: in vivo, C57BL/6 mice
Experimental: Blood samples were collected at each time point for analysis. Plasma samples were analyzed by liquid chromatography–mass spectrometry (LC-MS/MS).

MAPK1(h) = MAPK1(h) (Homo sapiens, UniProt P27361); assay: Eurofins kinase assay
MAPK1(h), sequence (P27361 whole entry): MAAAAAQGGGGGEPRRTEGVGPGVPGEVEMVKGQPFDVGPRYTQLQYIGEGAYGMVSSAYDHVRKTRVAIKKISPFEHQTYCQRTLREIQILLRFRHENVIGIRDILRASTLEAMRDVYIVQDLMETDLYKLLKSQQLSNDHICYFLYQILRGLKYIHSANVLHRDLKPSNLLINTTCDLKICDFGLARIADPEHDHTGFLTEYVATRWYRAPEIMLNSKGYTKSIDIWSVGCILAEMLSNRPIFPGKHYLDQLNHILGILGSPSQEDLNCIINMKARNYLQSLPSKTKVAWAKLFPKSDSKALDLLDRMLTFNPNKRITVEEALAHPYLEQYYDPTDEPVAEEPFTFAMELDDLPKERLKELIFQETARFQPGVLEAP

CDK5/p35(h) = CDK5/p35(h) (Homo sapiens, UniProt Q00535); assay: Eurofins kinase assay
p70S6K(h) = p70S6K(h) (Homo sapiens, UniProt P23443); assay: Eurofins kinase assay
PKCβII(h) = PKCβII(h) (Homo sapiens, UniProt P05771); assay: Eurofins kinase assay
CDK6/cyclinD3(h) = CDK6/cyclinD3(h) (Homo sapiens, UniProt Q00534); assay: Eurofins kinase assay
CDK6/cyclinD3(h), sequence (Q00534 whole entry): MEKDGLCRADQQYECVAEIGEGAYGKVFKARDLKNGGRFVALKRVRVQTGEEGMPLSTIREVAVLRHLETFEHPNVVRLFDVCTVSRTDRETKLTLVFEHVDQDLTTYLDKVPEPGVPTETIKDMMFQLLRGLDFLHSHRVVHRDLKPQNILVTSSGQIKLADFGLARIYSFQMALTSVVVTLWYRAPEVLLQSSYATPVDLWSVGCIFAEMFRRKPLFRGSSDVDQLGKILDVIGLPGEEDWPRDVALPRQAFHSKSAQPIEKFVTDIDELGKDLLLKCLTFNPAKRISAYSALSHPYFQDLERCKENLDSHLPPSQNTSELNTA
CDK6/cyclinD3(h), sequence (P30281 whole entry partner): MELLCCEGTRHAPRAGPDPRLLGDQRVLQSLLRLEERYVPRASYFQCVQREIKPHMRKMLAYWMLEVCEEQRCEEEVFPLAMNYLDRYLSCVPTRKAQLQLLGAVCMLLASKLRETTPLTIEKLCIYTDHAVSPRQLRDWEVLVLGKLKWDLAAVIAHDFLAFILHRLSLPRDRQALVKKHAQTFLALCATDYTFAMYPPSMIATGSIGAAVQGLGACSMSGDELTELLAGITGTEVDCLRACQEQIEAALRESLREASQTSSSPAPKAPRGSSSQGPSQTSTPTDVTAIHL

PKCδ(h) = PKCδ(h) (Homo sapiens, UniProt Q05655); assay: Eurofins kinase assay
CK2(h) = CK2(h) (Homo sapiens, UniProt P68400); assay: Eurofins kinase assay
CSF1R = CSF1R (Homo sapiens, UniProt P07333); assay: Eurofins kinase assay
CSF1R, sequence (P07333 20-972): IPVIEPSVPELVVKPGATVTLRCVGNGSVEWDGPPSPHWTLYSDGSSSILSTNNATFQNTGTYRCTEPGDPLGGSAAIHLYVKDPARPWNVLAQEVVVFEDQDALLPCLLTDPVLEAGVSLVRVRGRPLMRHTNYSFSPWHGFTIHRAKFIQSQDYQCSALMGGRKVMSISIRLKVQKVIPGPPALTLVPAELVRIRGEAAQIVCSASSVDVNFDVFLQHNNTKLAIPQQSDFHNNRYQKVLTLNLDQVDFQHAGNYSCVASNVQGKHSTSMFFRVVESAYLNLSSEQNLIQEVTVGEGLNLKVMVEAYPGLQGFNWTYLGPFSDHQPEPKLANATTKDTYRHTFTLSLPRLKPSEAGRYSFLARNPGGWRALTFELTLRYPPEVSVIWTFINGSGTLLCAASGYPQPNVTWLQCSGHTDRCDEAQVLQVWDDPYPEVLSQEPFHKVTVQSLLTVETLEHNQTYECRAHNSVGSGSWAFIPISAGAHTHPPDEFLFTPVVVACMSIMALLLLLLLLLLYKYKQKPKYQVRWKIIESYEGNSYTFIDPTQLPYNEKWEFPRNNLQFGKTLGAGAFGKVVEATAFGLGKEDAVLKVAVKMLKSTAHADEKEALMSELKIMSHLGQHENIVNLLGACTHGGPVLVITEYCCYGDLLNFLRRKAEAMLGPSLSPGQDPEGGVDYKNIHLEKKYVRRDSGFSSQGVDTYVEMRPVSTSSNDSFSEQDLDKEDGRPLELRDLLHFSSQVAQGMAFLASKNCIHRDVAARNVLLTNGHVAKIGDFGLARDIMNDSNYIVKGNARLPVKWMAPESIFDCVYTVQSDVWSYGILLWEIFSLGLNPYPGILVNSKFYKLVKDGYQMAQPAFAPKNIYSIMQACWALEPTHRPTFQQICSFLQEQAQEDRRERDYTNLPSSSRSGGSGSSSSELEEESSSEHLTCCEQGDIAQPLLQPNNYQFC

TIE2 = TIE2 (Homo sapiens, UniProt Q02763); assay: Eurofins kinase assay
TIE2, sequence (Q02763 23-1124): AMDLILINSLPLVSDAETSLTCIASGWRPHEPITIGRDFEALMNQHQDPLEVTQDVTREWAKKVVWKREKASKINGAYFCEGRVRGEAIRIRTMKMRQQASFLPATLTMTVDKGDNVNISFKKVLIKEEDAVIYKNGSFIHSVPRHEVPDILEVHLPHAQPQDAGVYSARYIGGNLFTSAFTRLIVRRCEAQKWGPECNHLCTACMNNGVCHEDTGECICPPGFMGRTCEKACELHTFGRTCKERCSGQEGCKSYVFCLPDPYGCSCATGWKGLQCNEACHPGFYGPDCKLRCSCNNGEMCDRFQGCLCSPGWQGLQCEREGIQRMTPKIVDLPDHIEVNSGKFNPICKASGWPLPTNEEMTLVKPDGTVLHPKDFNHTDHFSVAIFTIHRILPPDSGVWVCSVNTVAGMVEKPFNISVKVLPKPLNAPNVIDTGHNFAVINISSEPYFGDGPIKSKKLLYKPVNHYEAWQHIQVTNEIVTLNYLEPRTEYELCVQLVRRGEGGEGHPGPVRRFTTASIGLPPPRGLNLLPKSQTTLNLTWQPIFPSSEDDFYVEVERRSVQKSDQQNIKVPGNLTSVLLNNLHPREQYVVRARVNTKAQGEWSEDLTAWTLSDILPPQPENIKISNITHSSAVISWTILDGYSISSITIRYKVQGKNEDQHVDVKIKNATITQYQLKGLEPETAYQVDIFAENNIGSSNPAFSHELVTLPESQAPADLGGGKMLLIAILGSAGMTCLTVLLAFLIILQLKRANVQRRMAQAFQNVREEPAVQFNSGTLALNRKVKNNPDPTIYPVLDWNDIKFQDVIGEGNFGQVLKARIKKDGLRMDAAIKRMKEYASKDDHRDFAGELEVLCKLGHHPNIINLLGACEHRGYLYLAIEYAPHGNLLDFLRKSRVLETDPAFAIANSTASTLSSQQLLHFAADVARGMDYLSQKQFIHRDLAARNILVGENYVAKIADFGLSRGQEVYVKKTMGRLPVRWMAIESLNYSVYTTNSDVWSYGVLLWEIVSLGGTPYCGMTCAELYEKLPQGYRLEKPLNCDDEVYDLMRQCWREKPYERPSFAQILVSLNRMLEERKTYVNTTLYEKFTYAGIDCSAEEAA

[2] = male, C57BL/6, mouse, plasma, iv 5 mg/kg
[3] = male, C57BL/6, mouse, plasma, po 40 mg/kg

O=C(Nc1cc(Nc2ncccc2-c2ncnc3[nH]cnc23)ccc1F)c1cc(C(F)(F)F)cc(C(F)(F)F)c1 [SJ-C1044, N-(5-(3-(9H-purin-6-yl)pyridin-2-ylamino)-2-fluorophenyl)-3,5-bis(trifluoromethyl)benzamide]
inhibition at 10 µM (BTK(h)): 18%
paradoxical activation of MEK and ERK ([1]; KRAS-mutated colorectal cancer cells): without any evidence of paradoxical activation
MEK and ERK phosphorylation ([1]; LS513, 1 h treatment): inhibited MEK and ERK phosphorylation potently
AKT phosphorylation (AKT phosphorylation): no detectable difference
inhibition at 10 µM (PDK1(h)): 0%
inhibition at 10 µM (CRAF): 86%
inhibition at 10 µM (FGFR3(h)): 48%
inhibition at 10 µM (Fyn(h)): 27%
inhibition at 10 µM (Yes(h)): 17%
GI50 (LS513 (KRAS G12D)): 290 nM
inhibition at 10 µM (Syk(h)): -26%
GI50 (SW620 (KRAS G12V)): 628 nM
inhibition at 10 µM (cSRC(h)): 38%
inhibition at 10 µM (PKCζ(h)): 1%
inhibition at 10 µM (PKCμ(h)): -3%
sustained plasma concentration (Pharmacokinetic study; for 16 h per day, 40 mg/kg once daily, 40 mg/kg): ≥ 8000 ng/mL and ≥ 14 μM
AUC(0-t) (Pharmacokinetic study; [2]): 97.8 µg·h/mL
Cmax (Pharmacokinetic study; [2]): 11400 ng/mL
Tmax (Pharmacokinetic study; [2]): 1.6 h
AUC(0-t) (Pharmacokinetic study; [3]): 228 µg·h/mL
Cmax (Pharmacokinetic study; [3]): 14900 ng/mL
Tmax (Pharmacokinetic study; [3]): 4.3 h
bioavailability (Pharmacokinetic study; [3]): 23%
inhibition at 10 µM (MAPK1(h)): -3%
inhibition at 10 µM (CDK5/p35(h)): -19%
inhibition at 10 µM (p70S6K(h)): 8%
inhibition at 10 µM (PKCβII(h)): 10%
inhibition at 10 µM (CDK6/cyclinD3(h)): -5%
inhibition at 10 µM (PKCδ(h)): -14%
inhibition at 10 µM (CK2(h)): -11%
IC50 (CSF1R): 235 nM
inhibition at 10 µM (CSF1R): 70%
IC50 (TIE2): 23 nM
inhibition at 10 µM (TIE2): 97%
